Paper PMC5666843, “Seco-B-Ring Steroidal Dienynes with Aromatic D Ring: Design, Synthesis and Biological Evaluation” (International Journal of Molecular Sciences, 2017)

Target: T1, recombinant human VDR (hVDR, vitamin D receptor) (Homo sapiens, UniProt P11473)
T1 sequence (P11473 1-427): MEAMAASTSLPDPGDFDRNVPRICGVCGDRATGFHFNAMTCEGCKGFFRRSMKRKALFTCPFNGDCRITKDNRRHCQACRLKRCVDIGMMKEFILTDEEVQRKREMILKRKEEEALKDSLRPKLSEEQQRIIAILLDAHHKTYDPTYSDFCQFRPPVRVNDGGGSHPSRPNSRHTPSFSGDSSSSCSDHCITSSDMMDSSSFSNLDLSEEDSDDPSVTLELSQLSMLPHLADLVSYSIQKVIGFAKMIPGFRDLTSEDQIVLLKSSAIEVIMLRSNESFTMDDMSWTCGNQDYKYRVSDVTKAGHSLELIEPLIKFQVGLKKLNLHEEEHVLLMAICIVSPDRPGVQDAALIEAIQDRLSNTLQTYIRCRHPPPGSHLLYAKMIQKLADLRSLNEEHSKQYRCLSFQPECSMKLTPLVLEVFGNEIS
Assay: fluorescence polarization competition assay (PolarScreen)
Type: binding
Details: read-out: 6
Text: fluorescence polarization competition assay (PolarScreen) on recombinant human VDR (hVDR, vitamin D receptor)

- IC50: 0.028 µM
Compound: C=C1[C@H](O)C(C)=C(C#CC2=CCCc3c2cccc3[C@H](C)CCCC(C)(C)O)C[C@H]1O [compound 6, (1R,3S,1′′R)-5-[5′-(5′′-Hydroxy-1′′,5′′-dimethylhexyl)-3′,4′-dihydro-naphthalen-1′-ylethynyl]-4-methyl-2-methylene-cyclohex-4-ene-1,3-diol]
